Reference: ChEMBL document CHEMBL5385907, “Proline-Hinged α-Helical Peptides Sensitize Gram-Positive Antibiotics, Expanding Their Physicochemical Properties to Be Used as Gram-Negative Antibiotics” (J Med Chem, 2024)
Converted amounts (≈) assume the structure as drawn. The source made the active and inactive calls. The calls are words filed in the database; no cut-off is given here. Residues, ends and D or L forms follow the SMILES beside them.

How the values were obtained:
Escherichia coli [1] = assay: Antibacterial activity against Escherichia coli ATCC 25922 assessed as inhibition of bacterial growth incubated for 18 hrs by two fold serial dilution assay; assay type: functional
Acinetobacter baumannii [2] = assay: Antibacterial activity against Acinetobacter baumannii ATCC 17978 assessed as inhibition of bacterial growth incubated for 18 hrs by two fold serial dilution assay; assay type: functional
Klebsiella pneumoniae [3] = assay: Antibacterial activity against Klebsiella pneumoniae ATCC 700603 assessed as inhibition of bacterial growth incubated for 18 hrs by two fold serial dilution assay; assay type: functional
[4] = Hemolytic activity in human blood assessed as hemolysis incubated for 6 hrs by microplate reader analysis; assay type: toxicity, tissue-based
[5] = Hydrophobicity of the compound assessed as retention time by reversed-phase HPLC analysis; assay type: physicochemical
Lipopolysaccharide (LPS) = assay: Displacement of BODIPY-TR-cadaverine from Escherichia coli O128:B12 LPS assessed as effective dose incubated for 1 hr by fluorescence microplate reader assay
Escherichia coli [6] = assay: Potentiation of rifampicin induced antibacterial activity against NDM1-producing carbapenem-resistant Escherichia coli infected CD1 mouse sepsis model assessed as reduction in bacterial colony forming unit in blood at 10 mg/kg,SC administrated after 2 hrs of post-infection in presence of rifampicin; assay type: functional
Escherichia coli [7] = assay: Potentiation of rifampicin induced antibacterial activity against NDM1-producing carbapenem-resistant Escherichia coli infected CD1 mouse sepsis model assessed as reduction in bacterial colony forming unit in blood at 10 mg/kg,SC administrated after 6 hrs of post-infection in presence of rifampicin; assay type: functional
Escherichia coli [8] = assay: Potentiation of erythromycin induced antibacterial activity against Escherichia coli ATCC 25922 assessed as decrease in bacterial growth at 0.4 uM incubated for 18 hrs in presence of erythromycin by two fold serial dilution assay; assay type: functional, organism-based
Escherichia coli [9] = assay: Potentiation of fusidic acid induced antibacterial activity against Escherichia coli ATCC 25922 assessed as decrease in bacterial growth at 0.4 uM incubated for 18 hrs in presence of fusidic acid by two fold serial dilution assay; assay type: functional, organism-based
Escherichia coli [10] = assay: Potentiation of novobiocin induced antibacterial activity against Escherichia coli ATCC 25922 assessed as decrease in bacterial growth at 0.4 uM incubated for 18 hrs in presence of novobiocin by two fold serial dilution assay; assay type: functional, organism-based
Acinetobacter baumannii [11] = assay: Potentiation of erythromycin induced antibacterial activity against Acinetobacter baumannii ATCC 17978 assessed as decrease in bacterial growth at 0.4 uM incubated for 18 hrs in presence of erythromycin by two fold serial dilution assay; assay type: functional, organism-based
Acinetobacter baumannii [12] = assay: Potentiation of fusidic acid induced antibacterial activity against Acinetobacter baumannii ATCC 17978 assessed as decrease in bacterial growth at 0.4 uM incubated for 18 hrs in presence of fusidic acid by two fold serial dilution assay; assay type: functional, organism-based
Acinetobacter baumannii [13] = assay: Potentiation of novobiocin induced antibacterial activity against Acinetobacter baumannii ATCC 17978 assessed as decrease in bacterial growth at 0.4 uM incubated for 18 hrs in presence of novobiocin by two fold serial dilution assay; assay type: functional, organism-based
Klebsiella pneumoniae [14] = assay: Potentiation of erythromycin induced antibacterial activity against Klebsiella pneumoniae ATCC 700603 assessed as decrease in bacterial growth at 0.4 uM incubated for 18 hrs in presence of erythromycin by two fold serial dilution assay; assay type: functional, organism-based
Klebsiella pneumoniae [15] = assay: Potentiation of fusidic acid induced antibacterial activity against Klebsiella pneumoniae ATCC 700603 assessed as decrease in bacterial growth at 0.4 uM incubated for 18 hrs in presence of fusidic acid by two fold serial dilution assay; assay type: functional, organism-based
Klebsiella pneumoniae [16] = assay: Potentiation of novobiocin induced antibacterial activity against Klebsiella pneumoniae ATCC 700603 assessed as decrease in bacterial growth at 0.4 uM incubated for 18 hrs in presence of novobiocin by two fold serial dilution assay; assay type: functional, organism-based
Escherichia coli [17] = assay: Antibacterial activity against Escherichia coli ATCC 25922 assessed as change in membrane fluidity incubated for 1 hr by generalized polarization assay; assay type: functional, organism-based
Escherichia coli [18] = assay: Antibacterial activity against Escherichia coli ATCC 25922 assessed as bacterial growth inhibition incubated for 1 hr by propidium iodide staining based fluorescence assay; assay type: functional, organism-based
[19] = Nephrotoxicity in Sprague-Dawley rat assessed as increase in blood urea nitrogen level at 30 mg/kg,iv administration for 1 hr and measured after 25 hrs; assay type: toxicity, organism-based; settings: in vivo, 26 h
[20] = Nephrotoxicity in Sprague-Dawley rat assessed as increase in creatinine level at 30 mg/kg,iv administration for 1 hr and measured after 25 hrs; assay type: toxicity, organism-based; settings: in vivo, 26 h

| Molecule | MIC (Escherichia coli [1]) | MIC (Acinetobacter baumannii [2]) | MIC (Klebsiella pneumoniae [3]) | MHC10 [4] | Retention_time [5] | Activity (Escherichia coli [8]) | Activity (Escherichia coli [9]) | Activity (Escherichia coli [10]) | Activity (Acinetobacter baumannii [11]) | Activity (Acinetobacter baumannii [12]) | Activity (Acinetobacter baumannii [13]) | Activity (Klebsiella pneumoniae [14]) | Activity (Klebsiella pneumoniae [15]) | Activity (Klebsiella pneumoniae [16]) | other results |
| --- | --- | --- | --- | --- | --- | --- | --- | --- | --- | --- | --- | --- | --- | --- | --- |
| CCCCCCCC(=O)N[C@@H](CCCCN)C(=O)N[C@@H](CCCCN)C(=O)N[C@@H](C)C(=O)N[C@@H](C)C(=O)N[C@@H](CCCCN)C(=O)N[C@@H](C)C(=O)N[C@@H](C)C(=O)N[C@@H](CCCCN)C(=O)N[C@@H](CCCCN)C(=O)N1CCC[C@H]1C(=O)N[C@@H](C)C(=O)N[C@@H](CCCCN)C(=O)N[C@@H](C)C(=O)N[C@@H](C)C(=O)N[C@@H](CCCCN)C(N)=O (HELM PEPTIDE1{[CCCCCCCC(=O)[*:2]].K.K.A.A.K.A.A.K.K.P.A.K.A.A.K.[am]}$$$$V2.0) | > 80 µM | > 80 µM | > 80 µM | > 160 µM | 13.7 min |  |  |  |  |  |  |  |  |  | ED50 (Lipopolysaccharide (LPS)): inactive |
| Ac-KLLKLLKKPLKLLK-NH2 | > 80 µM | 80 µM | > 80 µM | > 160 µM | 18.8 min |  |  |  |  |  |  |  |  |  | Activity (Escherichia coli [6]): >3 log10CFU; Activity (Escherichia coli [7]): >3 log10CFU |
| Ac-KKLLKLLKKPLKLLA-NH2 | > 80 µM | 2.5 µM | > 80 µM | > 160 µM | 18.9 min | Active | Active | Active | Active | Active | Active | Active | Active | Active |  |
| Ac-KKALKLLKKPLKLLK-NH2 | > 80 µM | > 80 µM | > 80 µM | > 160 µM | 16.7 min | Active | Active | Active | Active | Active | Active | Active | Active | Active |  |
| POLYMYXIN B |  |  |  |  |  |  |  |  |  |  |  |  |  |  | Activity (Escherichia coli [17]): Active; Activity (Escherichia coli [18]): Active |
| Ac-KKLLKLLKKPLALLK-NH2 | > 80 µM | 20 µM | > 80 µM | > 160 µM | 19.6 min | Active | Active | Active | Active | Active | Active | Active | Active | Active |  |
| Ac-KKLLKLAKKPLKLLK-NH2 | > 80 µM | > 80 µM | > 80 µM | > 160 µM | 16.8 min | Active | Active | Active | Active | Active | Active | Active | Active | Active |  |
| CC(=O)N[C@@H](CCCCN)C(=O)N[C@@H](CCCCN)C(=O)N[C@@H](CC(C)C)C(=O)N[C@@H](CC(C)C)C(=O)N[C@@H](CCCCN)C(=O)N[C@@H](CC(C)C)C(=O)N[C@@H](CC(C)C)C(=O)N[C@@H](CCCCN)C(=O)N[C@@H](CCCCN)C(=O)N1CCC[C@H]1C(=O)N[C@@H](CC(C)C)C(=O)N[C@@H](CCCCN)C(=O)N[C@@H](CC(C)C)C(=O)N[C@@H](CC(C)C)C(=O)N[C@@H](CCCCN)C(N)=O | > 80 µM | 10 µM (≈ 18.5 µg/mL) | > 80 µM | > 160 µM | 18.2 min | Active | Active | Active | Active | Active | Active | Active | Active | Active |  |
| Ac-KKLAKLLKKPLKLLK-NH2 | > 80 µM | 80 µM | > 80 µM | > 160 µM | 17.1 min | Active | Active | Active | Active | Active | Active | Active | Active | Active |  |
| Ac-AKLLKLLKKPLKLLK-NH2 | > 80 µM | 40 µM | > 80 µM | > 160 µM | 19.2 min | Active | Active | Active | Active | Active | Active | Active | Active | Active |  |
| Ac-KKLLKLLKKPLKLAK-NH2 | > 80 µM | 80 µM | > 80 µM | > 160 µM | 17.1 min | Active | Active | Active | Active | Active | Active | Active | Active | Active |  |
| COLISTIN |  |  |  |  |  |  |  |  |  |  |  |  |  |  | Activity [19]: 30 mg/dL; Activity [20]: 0.74 mg/dL |
